Assay results taken from patent US20240408008A1, “AN IN-SITU GELLING ENEMA OF RIFAMYCIN FOR TREATING POUCHITIS AND DISTAL ULCERATIVE COLITIS” (COSMO TECHNOLOGIES LTD., priority 2021, published 2024).

Legend:
mTOR pathway = assay: Inhibition of mTOR and S6R phosphorylation in primary colonic epithelial cells, flow cytometry; assay type: cell-based, human; details: Homo sapiens, Epithelial cell; serum stimulated primary colonic epithelial cells, 48 hr; read-out: IC50, % cells positive for anti-pmTOR and anti-pS6R relative to DMSO
Protocol: To evaluate Rifamycin activity on the mTOR pathway, primary colonic epithelial cells were serum starved for 24 hr and restimulated with serum for 48 hr to induce phosphorylation of mTOR and its downstream target protein […]. Serum stimulated cells were treated with Rifamycin SV, Rifaximin, the positive control Rapamycin, or the negative vehicle control DMSO. Cells were fixed, stained with antibodies against pmTOR and pS6R then analyzed by flow cytometry.

DSS induced colitis = assay: Acute colitis induced by Dextran Sulfate Sodium (DSS); assay type: in vivo; details: mice, DSS 2%, PO 100 mg/Kg
Protocol: In situ gel enema formulation batch 7663 (same formulation as batch 7639) in vivo efficacy was tested in a murine model of acute colitis induced by Dextran Sulfate Sodium (DSS). This animal model is perhaps the most widely used mouse model of colitis and employs DSS, a chemical colitogen with anticoagulant properties, to induce disease which closely resembles human UC. DSS induced intestinal inflammation results in damage to the epithelial monolayer lining the large intestine allowing the dissemination of proinflammatory intestinal contents (e.g. bacteria and their products) into underlying tissue.
For this study, a group of mice was treated by enema with Batch 7663 (indicated as CB0125 in the figures) (dose 45 mg/kg), one group was treated by enema with Placebo Batch 7679 as a comparator for 7663; a group was treated by enema with Rifamycin powder dissolved in water (67 mg/kg). One group of mice was treated orally PO with 5-ASA at the dose of 100 mg/Kg; this group was introduced as positive control. 5-ASA is the golden standard therapy for inflammatory bowel diseases, including UC, distal UC and proctitis. One group was treated by enema with the vehicle (H2O) only, as negative control.
Briefly DSS (2%) was dissolved in water (w/v) and given to mice in place of normal drinking water. DSS water was provided ad libitum for 5 days and was changed daily. This period was followed by a washout period of 5 days with water only. Mice were weighed daily and monitored for clinical status including hunching, mobility, soft stool and/or diarrhoea. At end of the study mice were sacrificed by CO2 inhalation. Immediately after euthanasia, the animals were laparatomyzed and intestine was exteriorized. The entire colon was isolated from the caecum to the anus, placed unstretched on a ruler and then measured and weighed after rinsing the lumen with saline. The weight was normalized to the colon length by calculating the ratio.
For histological analysis of colon samples, about 2 cm of the middle portion of isolated colon was fixed in a 10% formalin. Each fixed fragment was embedded in paraffin. The slides were stained with haematoxylin and eosin and assessed according to the histological score.

SMILES	IC50 (mTOR pathway) [µM]	histological score (DSS induced colitis; compared to 7663)	clinical score AUC (DSS induced colitis; compared to batch 7663)
CO[C@H]1/C=C/O[C@@]2(C)Oc3c(C)c(O)c4c(O)c(c5c(nc6cc(C)ccn65)c4c3C2=O)NC(=O)/C(C)=C\C=C\[C@H](C)[C@H](O)[C@@H](C)[C@@H](O)[C@@H](C)[C@H](OC(C)=O)[C@@H]1C [Rifaximin]	43	–	–
CO[C@H]1C[C@@H]2CC[C@@H](C)[C@@](O)(O2)C(=O)C(=O)N2CCCC[C@H]2C(=O)O[C@H]([C@H](C)C[C@@H]2CC[C@@H](O)[C@H](OC)C2)CC(=O)[C@H](C)/C=C(\C)[C@@H](O)[C@@H](OC)C(=O)[C@H](C)C[C@H](C)/C=C/C=C/C=C/1C [Rapamycin]	0.53	–	–
Nc1ccc(O)c(C(=O)O)c1 [Batch 5-ASA, 5-aminosalycilic acid]	–	lower improvement	lower efficacy
